Test results taken from publication PMC7953027 (Journal of Pesticide Science, 2021).

Key:
Aedes albopictus EcRs = molecular target: T1, Aedes albopictus EcRs (Aedes albopictus, UniProt Q9U3Y4); format: binding; conditions: for pIC50 (M): Series II, [3H]PonA binding, NIAS-AeAl-2 cells, 30 min, 25°C, mean±SD; for change in binding potency compared to the parent compound: 21, 22, 23 vs. 1, 28, 31 vs. 22
T1 sequence (Q9U3Y4 1-680): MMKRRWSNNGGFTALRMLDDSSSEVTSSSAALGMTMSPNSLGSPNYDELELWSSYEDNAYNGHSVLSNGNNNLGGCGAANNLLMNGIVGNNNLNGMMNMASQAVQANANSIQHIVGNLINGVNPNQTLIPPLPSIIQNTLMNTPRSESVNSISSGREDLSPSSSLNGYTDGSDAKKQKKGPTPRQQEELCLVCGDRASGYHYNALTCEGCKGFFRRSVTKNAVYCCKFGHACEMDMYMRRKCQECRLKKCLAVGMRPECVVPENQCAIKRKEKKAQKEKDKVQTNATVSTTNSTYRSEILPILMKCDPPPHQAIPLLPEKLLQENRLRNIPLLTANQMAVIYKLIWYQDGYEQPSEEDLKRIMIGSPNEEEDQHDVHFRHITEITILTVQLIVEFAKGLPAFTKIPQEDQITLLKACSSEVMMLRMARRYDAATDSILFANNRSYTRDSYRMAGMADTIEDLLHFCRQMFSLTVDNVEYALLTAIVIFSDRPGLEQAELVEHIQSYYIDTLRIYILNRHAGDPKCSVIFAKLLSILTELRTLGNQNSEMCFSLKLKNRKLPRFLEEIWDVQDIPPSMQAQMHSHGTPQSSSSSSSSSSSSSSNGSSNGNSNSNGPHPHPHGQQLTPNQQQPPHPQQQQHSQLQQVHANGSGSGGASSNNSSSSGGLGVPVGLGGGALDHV
T1 sequence (Q9U3Y3 1-485 partner): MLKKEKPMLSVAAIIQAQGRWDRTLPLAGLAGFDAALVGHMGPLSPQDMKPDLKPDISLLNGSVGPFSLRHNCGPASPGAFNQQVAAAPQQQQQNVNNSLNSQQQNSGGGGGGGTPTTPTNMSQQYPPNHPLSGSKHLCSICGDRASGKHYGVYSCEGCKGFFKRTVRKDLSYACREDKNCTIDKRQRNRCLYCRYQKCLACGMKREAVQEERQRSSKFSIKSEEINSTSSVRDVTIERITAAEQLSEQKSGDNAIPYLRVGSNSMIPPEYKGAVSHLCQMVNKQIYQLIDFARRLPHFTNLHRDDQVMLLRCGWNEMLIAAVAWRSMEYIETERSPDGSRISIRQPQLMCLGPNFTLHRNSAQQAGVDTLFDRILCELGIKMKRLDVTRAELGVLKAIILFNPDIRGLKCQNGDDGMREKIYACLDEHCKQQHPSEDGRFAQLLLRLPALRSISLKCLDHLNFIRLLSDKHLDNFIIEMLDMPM

A. albopictus larvae = assay: Larvicidal assay on second-instar larvae; format: in vivo, Aedes albopictus; conditions: for larvicidal activity (in words): 1 µM, 3 days; for mortality at 1 µM / LC50: Aedes albopictus, 72 h; for mortality at 1 µM: read-out: Mortality (%) at 1 µM Obsd.; for Logit A Obsd.: logit-transformed mortality at 1 µM based on Eq. 1; for LC50: read-out: pLC50 (M) (converted)

SMILES | pIC50 (M) (Aedes albopictus EcRs) | larvicidal activity (in words) (A. albopictus larvae) | mortality at 1 µM (A. albopictus larvae) [%] | Logit A Obsd. (A. albopictus larvae) | LC50 (A. albopictus larvae) [M] | change in binding potency compared to the parent compound (Aedes albopictus EcRs)
C[C@@H]1C[C@H](Nc2ccccc2)c2cc(F)ccc2N1C(=O)c1ccnc(C#N)c1 [Compound 35] | 6.55±0.07 (2) M | did not show larvicidal activity | 0 |  |  | 
C[C@@H]1C[C@H](Nc2ccccc2)c2cc(F)ccc2N1C(=O)c1cccnc1 [Compound 22] | 6.76±0.15 (2) M | did not show larvicidal activity | 0 |  |  | 
C[C@@H]1C[C@H](Nc2ccccc2)c2cc(F)ccc2N1C(=O)c1ccnnc1 [Compound 25] | 6.51±0.13 (2) M |  | 10 | −0.95 |  | 
C[C@@H]1C[C@H](Nc2ccccc2)c2cc(F)ccc2N1C(=O)c1ccc(C(F)(F)F)nc1 [Compound 30] | 7.03±0.00 (2) M |  | 44 ± 24 | −0.10 | 9.55e-07 | 
C[C@@H]1C[C@H](Nc2ccccc2)c2cc(F)ccc2N1C(=O)c1ccc(Cl)nc1 [Compound 29] | 7.09±0.07 (2) M |  | 80 | 0.60 | 4.57e-07 | 
C[C@@H]1C[C@H](Nc2ccccc2)c2cc(F)ccc2N1C(=O)c1ccc(C#N)nc1 [Compound 31] | 7.61±0.08 (2) M |  | 77 ± 19 | 0.51 | 5.13e-07 | sevenfold gain in potency
C[C@@H]1C[C@H](Nc2ccccc2)c2cc(F)ccc2N1C(=O)c1ccnc(C(F)(F)F)c1 [Compound 34] | 6.56±0.04 (2) M | did not show larvicidal activity | 0 |  |  | 
C[C@@H]1C[C@H](Nc2ccccc2)c2cc(F)ccc2N1C(=O)c1ccncn1 [Compound 24] | 6.67±0.03 (2) M |  | 10 | −0.95 |  | 
C[C@@H]1C[C@H](Nc2ccccc2)c2cc(F)ccc2N1C(=O)c1cncnc1 [Compound 26] | 6.37±0.02 (2) M |  | 5 | −1.28 |  | 
C[C@@H]1C[C@H](Nc2ccccc2)c2cc(F)ccc2N1C(=O)c1ccccn1 [Compound 21, (2R,4S)-6-fluoro-2-methyl-4-(phenylamino)-1-(2-pyridylcarbonyl)-1,2,3,4-tetrahydroquinoline] | 5.93±0.08 (2) M | did not show larvicidal activity | 0 |  |  | threefold loss in potency
Cc1ccc(C(=O)N2c3ccc(F)cc3[C@@H](Nc3ccccc3)C[C@H]2C)cn1 [Compound 28] | 6.64±0.08 (2) M |  | 11 | −0.91 |  | equipotent
C[C@@H]1C[C@H](Nc2ccccc2)c2cc(F)ccc2N1C(=O)c1ccnc(F)c1 [Compound 32] | 7.47±0.08 (2) M |  | 74 ± 11 | 0.44 | 4.68e-07 | 
C[C@@H]1C[C@H](Nc2ccccc2)c2cc(F)ccc2N1C(=O)c1ccncc1 [Compound 23, (2R,4S)-6-fluoro-2-methyl-4-(phenylamino)-1-(4-pyridylcarbonyl)-1,2,3,4-tetrahydroquinoline] | 7.29±0.03 (2) M |  | 36 ± 14 | −0.24 | 2.57e-06 | eightfold gain in potency
C[C@@H]1C[C@H](Nc2ccccc2)c2cc(F)ccc2N1C(=O)c1cnc(Cl)nc1 [Compound 27] | 6.11±0.12 (2) M |  | 16 | −0.72 |  | 
